Reference: patent US9708336B2, “Metallo-beta-lactamase inhibitors” (priority 2014, dated 2017)
Like-named read-outs stand apart in the source and are kept apart here.

Key:
[1] = biological target: NDM-1 (Klebsiella pneumoniae, UniProt C7C422); experiment: biochemical; assay type: biochemical; details: read-out: NDM-1 IC50
Protocol: Enzyme Activity: Determination of IC50
The Class B enzyme activities were measured in the presence of the test inhibitor in a fluorescence assay against a commercially available substrate consisting of a cephalosporin core linking 7-hydroxycoumarin to fluorescein (CCF2-FA). The enzyme (NDM-1, IMP-1 or VIM-1) and the substrate were diluted in 100 mM KH2PO4 buffer (pH 7) containing 0.005% Tween-20 and 10 μM ZnSO4. […] The test inhibitor was dissolved in dimethylsulfoxide and diluted 1:50 in the assay, resulting in a final concentration range of 20 uM to 0.00063 uM. In a 384-well microplate, the test inhibitor was incubated with the metallo-β-lactamase enzyme and the substrate for 2 hours at 25° C. Fluorescence at 460 nm following excitation at 405 nm was measured. The IC50 value was determined from semi-logarithmic plots of enzyme inhibition versus inhibitor concentration, with a curve generated using a 4-parameter fit.

[2] = test system: Escherichia coli expressing NDM-1 (CLB30016); experiment: Antibiotic potentiation activity: synergistic concentration (MITC95) with imipenem, OD600 growth; assay type: cell-based; details: for Escherichia coli expressing NDM-1 (CLB 30016) MITC95: concentration giving 95% inhibition of bacterial growth
Protocol: (§1) Antibiotic Potentiation Activity: Determination of Synergistic Concentration
(§2) The bacterial strains tested included the clinical strains Escherichia coli expressing NDM-1 (CLB30005, CLB30016), Serratia marcescens expressing IMP-1 (CL5741), and Klebsiella pneumoniae expressing VIM-1 (IHMA599644) Inhibitor activity was measured in the presence and absence of imipenem in a 384-well microplate.
(§3) The clinical strains CLB30016, CL5741 and IHMA599644 were grown on trypticase soy agar containing 5% sheep's blood. The clinical strain CLB30005 was grown on Mueller Hinton broth agar containing 8 ug/ml imipenem. The bacteria on agar plates were incubated at 35° C. with humidity overnight. The following day, individual colonies from each clinical strain were picked and resuspended in 5 ml saline to attain an OD600 of 0.14, 0.11, 0.15 and 0.13, for CLB30005, CLB30016, CL5741 and IHMA599644, respectively. These were further diluted 1:100 into 1.1×CAMHB and used to inoculate the test wells as described below.
(§4) Imipenem in 10 mM 3-(N-morpholino)propanesulfonic acid (MOPS, pH 7) was stored in single use aliquots at −80° C. […] On the day of the assay, 4 μl of antibiotic was added to 45 ul of bacteria followed by 1 μl of test compound and mixed by pipetting and with an orbital shaker. The concentration of antibiotic used in the assay was 4 μg/ml, or optionally 1 μg/ml. Microplates were covered and incubated at 35° C. for 22 hours to 24 hours. At the end of the incubation, absorbance was determined using a spectrophotometer.

[3] = test system: Klebsiella pneumoniae expressing VIM-1 (IHMA599644); experiment: as above; assay type: cell-based; details: for Klebsiella pneumoniae expressing VIM-1 (IHMA 599644) MITC95: concentration giving 95% inhibition of bacterial growth
Protocol: as §1, §2, §3, §4

[4] = test system: Serratia marcescens expressing IMP-1 (CL5741); experiment: as above; assay type: cell-based; details: for Serratia marcescens expressing IMP-1 (CL5741) MITC95: concentration giving 95% inhibition of bacterial growth
Protocol: as §1, §2, §3, §4

[5] = biological target: IMP-1 (Serratia marcescens, UniProt P52699); experiment: biochemical; assay type: biochemical; details: read-out: IMP-1 IC50
[6] = NDM-1 enzyme, CCF2-FA fluorescence assay
[7] = Escherichia coli expressing NDM-1 (CLB30016), 95% growth inhibition
[8] = Klebsiella pneumoniae expressing VIM-1 (IHMA599644), 95% growth inhibition
[9] = Serratia marcescens expressing IMP-1 (CL5741), 95% growth inhibition
[10] = IMP-1 enzyme, CCF2-FA fluorescence assay
[11] = fluorescence assay with CCF2-FA substrate
[12] = CLB30016 (NDM-1), 95% inhibition of bacterial growth
[13] = IHMA599644 (VIM-1), 95% inhibition of bacterial growth
[14] = CL5741 (IMP-1), 95% inhibition of bacterial growth
[15] = NDM-1 enzyme, CCF2-FA substrate
[16] = (CLB30016, NDM-1), 95% growth inhibition
[17] = Klebsiella pneumoniae IHMA599644 (VIM-1), 95% growth inhibition
[18] = Serratia marcescens CL5741 (IMP-1), 95% growth inhibition
[19] = IMP-1 enzyme, CCF2-FA substrate

NDM-1, sequence (C7C422 whole entry, looked up, species assumed): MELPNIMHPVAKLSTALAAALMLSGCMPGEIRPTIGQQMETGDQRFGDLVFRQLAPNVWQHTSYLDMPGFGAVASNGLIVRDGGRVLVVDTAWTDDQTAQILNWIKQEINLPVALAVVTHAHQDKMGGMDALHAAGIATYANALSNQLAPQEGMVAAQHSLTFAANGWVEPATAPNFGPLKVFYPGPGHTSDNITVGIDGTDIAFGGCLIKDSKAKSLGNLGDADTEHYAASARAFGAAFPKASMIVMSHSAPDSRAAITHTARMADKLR
IMP-1, sequence (P52699 whole entry, looked up): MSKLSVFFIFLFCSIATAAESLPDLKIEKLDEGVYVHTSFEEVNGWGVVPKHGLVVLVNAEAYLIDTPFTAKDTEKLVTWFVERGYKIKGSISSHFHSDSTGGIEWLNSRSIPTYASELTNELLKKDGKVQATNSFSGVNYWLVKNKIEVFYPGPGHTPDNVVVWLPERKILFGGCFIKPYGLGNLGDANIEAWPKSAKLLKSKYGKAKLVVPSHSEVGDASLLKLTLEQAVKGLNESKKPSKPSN

Structure (SMILES)	IC50 [1, 6]	Escherichia coli MITC95 [2, 7]	Klebsiella pneumoniae MITC95 [3, 8]	Serratia marcescens MITC95 [4, 9]	IC50 [5, 10]	IC50 [1, 11]	IC50 [5, 11]	other results
CN1C2CCC1CC(NCc1ccc(-c3cccc(S(N)(=O)=O)c3-c3nnn[nH]3)cc1)C2 (stereo not drawn) [Example 370, 4′-{[(8-methyl-8-azabicyclo[3.2.1]oct-3-yl)amino]methyl}-2-(1H-tetrazol-5-yl)biphenyl-3-sulfonamide]	7.35 nM	1.563 µM	200 µM	1.563 µM	45.8 nM	–	–	–
NC1CCCC(N2CCC(c3ccc(-c4ccc(C(F)(F)F)c(S(N)(=O)=O)c4-c4nnn[nH]4)cc3)CC2)C1 (stereo not drawn) [Example 798, 4′-[1-(3-aminocyclohexyl)piperidin-4-yl]-2-(1H-tetrazol-5-yl)-4-(trifluoromethyl)biphenyl-3-sulfonamide]	–	–	–	–	–	6.05 nM	2.35 nM	Escherichia coli MITC95 [2, 12]: 1.563 µM; Klebsiella pneumoniae MITC95 [3, 13]: 25 µM; Serratia marcescens MITC95 [4, 14]: 3.125 µM
NS(=O)(=O)c1cccc(-c2nc(-c3ccncc3)cs2)c1-c1nnn[nH]1 [Example 407, 3-[4-(4-pyridyl)thiazol-2-yl]-2-(1H-tetrazol-5-yl)benzenesulfonamide]	25.8 nM	3.125 µM	>200 µM	3.125 µM	115 nM	–	–	–
NS(=O)(=O)c1c(C(F)(F)F)ccc(N2CCN3C(=O)OCC3C2)c1-c1nnn[nH]1 (stereo not drawn) [Example 667, 3-(3-oxotetrahydro[1,3]oxazolo[3,4-a]pyrazin-7(1H)-yl)-2-(1H-tetrazol-5-yl)-6-(trifluoromethyl)benzenesulfonamide]	–	–	–	–	–	–	–	IC50 [1, 15]: 19.7 nM; Escherichia coli MITC95 [2, 16]: 3.125 µM; Klebsiella pneumoniae MITC95 [3, 17]: 9.375 µM; Serratia marcescens MITC95 [4, 18]: 2.344 µM; IC50 [5, 19]: 75 nM
NS(=O)(=O)c1c(C(F)(F)F)ccc([C@H]2CC[C@H](NC3CC[C@H]4NCC[C@@H]34)CC2)c1-c1nnn[nH]1 (stereo partly drawn) [Example 692, 3-{4-[(3aR,6aR)-octahydrocyclopenta[b]pyrrol-4-ylamino]cyclohexyl}-2-(1H-tetrazol-5-yl)-6-(trifluoromethyl)benzene sulfonamide]	–	–	–	–	–	–	–	IC50 [1, 15]: 6.36 nM; Escherichia coli MITC95 [2, 16]: 1.563 µM; Klebsiella pneumoniae MITC95 [3, 17]: 6.25 µM; Serratia marcescens MITC95 [4, 18]: 3.125 µM; IC50 [5, 19]: 19.8 nM
NC1CCN(C2CCN(c3ccc(C(F)(F)F)c(S(N)(=O)=O)c3-c3nnn[nH]3)CC2)C1 (stereo not drawn) [Example 768, 3-[4-(3-aminopyrrolidin-1-yl)piperidin-1-yl]-2-(1H-tetrazol-5-yl)-6-(trifluoromethyl) benzenesulfonamide]	–	–	–	–	–	24.6 nM	36.7 nM	Escherichia coli MITC95 [2, 12]: 12.5 µM; Klebsiella pneumoniae MITC95 [3, 13]: 3.125 µM; Serratia marcescens MITC95 [4, 14]: 6.25 µM
CN1[C@@H]2CC[C@H]1CC(NCc1ccc(-c3cccc(S(N)(=O)=O)c3-c3nnn[nH]3)cc1)C2 (stereo partly drawn) [Example 366, 4′-({[(3-endo)-8-methyl-8-azabicyclo[3.2.1]oct-3-yl]amino}methyl)-2-(1H-tetrazol-5-yl)biphenyl-3-sulfonamide]	18.2 nM	1.172 µM	150 µM	3.125 µM	257 nM	–	–	–
NS(=O)(=O)c1cccc(C2=CCS(=O)(=O)CC2)c1-c1nnn[nH]1 [Example 141, 3-(1,1-dioxido-3,6-dihydro-2H-thiopyran-4-yl)-2-(1H-tetrazol-5-yl)benzenesulfonamide]	–	–	–	–	–	61.5 nM	2340 nM	Escherichia coli expressing NDM-1 (CLB 30016) MITC95 [2]: 0.7813 µM; Klebsiella pneumoniae expressing VIM-1 (IHMA 599644) MITC95 [3]: 200 µM; Serratia marcescens expressing IMP-1 (CL5741) MITC95 [4]: 37.5 µM
NS(=O)(=O)c1cccc(-c2ccc3nonc3c2)c1-c1nnn[nH]1 [Example 130, 3-(benzo[c][1,2,5]oxadiazol-5-yl)-2-(1H-tetrazol-5-yl)benzenesulfonamide]	–	–	–	–	–	10.6 nM	267 nM	Escherichia coli expressing NDM-1 (CLB 30016) MITC95 [2]: 1.172 µM; Klebsiella pneumoniae expressing VIM-1 (IHMA 599644) MITC95 [3]: 37.5 µM; Serratia marcescens expressing IMP-1 (CL5741) MITC95 [4]: 9.375 µM
